Values joined by “and” are separate entries in the source; they are usually repeats but may differ in a detail not shown here. Identical values can stand only once. A value given as a limit tells only on which side of the number the result lay.

EGFR (human), sequence (P00533 whole entry, looked up): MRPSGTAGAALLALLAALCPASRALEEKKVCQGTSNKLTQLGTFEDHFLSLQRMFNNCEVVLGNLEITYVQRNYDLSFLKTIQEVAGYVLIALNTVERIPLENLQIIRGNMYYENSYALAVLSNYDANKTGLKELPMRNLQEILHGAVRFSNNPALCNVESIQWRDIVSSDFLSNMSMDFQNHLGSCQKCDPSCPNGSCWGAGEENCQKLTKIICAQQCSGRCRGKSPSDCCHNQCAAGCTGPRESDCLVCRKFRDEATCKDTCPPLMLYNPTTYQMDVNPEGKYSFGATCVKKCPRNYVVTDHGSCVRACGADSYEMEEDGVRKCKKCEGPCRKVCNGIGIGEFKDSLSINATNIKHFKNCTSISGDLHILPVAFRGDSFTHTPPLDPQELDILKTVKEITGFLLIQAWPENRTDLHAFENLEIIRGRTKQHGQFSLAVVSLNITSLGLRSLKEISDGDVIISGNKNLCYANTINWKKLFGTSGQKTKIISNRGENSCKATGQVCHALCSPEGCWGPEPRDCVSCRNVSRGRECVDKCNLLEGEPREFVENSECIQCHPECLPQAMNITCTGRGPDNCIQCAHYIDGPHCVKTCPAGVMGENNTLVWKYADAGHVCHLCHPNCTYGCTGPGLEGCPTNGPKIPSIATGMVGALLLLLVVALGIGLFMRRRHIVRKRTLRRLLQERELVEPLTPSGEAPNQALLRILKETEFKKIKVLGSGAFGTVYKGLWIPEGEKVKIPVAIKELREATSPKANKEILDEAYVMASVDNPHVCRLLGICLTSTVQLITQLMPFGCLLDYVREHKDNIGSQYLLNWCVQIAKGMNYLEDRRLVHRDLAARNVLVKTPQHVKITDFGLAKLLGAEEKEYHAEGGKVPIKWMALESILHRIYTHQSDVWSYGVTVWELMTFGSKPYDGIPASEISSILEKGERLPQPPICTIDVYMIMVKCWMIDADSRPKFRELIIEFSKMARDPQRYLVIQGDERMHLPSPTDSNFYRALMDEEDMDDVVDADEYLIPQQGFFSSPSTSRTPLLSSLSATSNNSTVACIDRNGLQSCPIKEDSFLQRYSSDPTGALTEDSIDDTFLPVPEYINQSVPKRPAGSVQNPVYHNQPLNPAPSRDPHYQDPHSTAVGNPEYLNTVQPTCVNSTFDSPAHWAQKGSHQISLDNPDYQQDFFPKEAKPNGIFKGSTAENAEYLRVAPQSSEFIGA

The target in one test is EGFR (murine) (UniProt P00533). As to conditions: nih3t3/c7.
EGFR (murine), sequence (P00533 whole entry, looked up): as above
Molecule `CC(C)(C)c1cc(/C=C(\C#N)S(=O)(=O)/C(C#N)=C/c2cc(C(C)(C)C)c(O)c(C(C)(C)C)c2)cc(C(C)(C)C)c1O` gave a 50% inhibitory concentration (IC50) of over 100 µM.

With `Cc1ccc2ncnc(Nc3cccc(C(F)(F)F)c3)c2c1`, the IC50 was 0.86 µM. Same read-out and setting: then `N#C/C(=C\c1cc(O)c(O)c(Br)c1)C(=O)NCCCNC(=O)/C(C#N)=C/c1cc(O)c(O)c(Br)c1`, with 31.5 µM; and `Cc1cc2nc(CSCCCSCc3nc4cc(C)c(C)cc4nc3-c3ccccc3)c(-c3ccccc3)nc2cc1C`, with 12.5 µM.

Take `Clc1cccc(Nc2ncnc3ccccc23)c1`: the IC50 is 0.16 µM and 0.2 µM. Regarding `CC(C)(C)c1cc(/C=C(\C#N)c2c(C#N)c(N)nn2-c2ccccc2)cc(C(C)(C)C)c1O`, the IC50 was 25 µM. The same measure, in the same setting: then `COC(=O)c1ccc(NCc2cc(O)ccc2O)cc1`, with 43 µM; and `N#CC(C#N)=CNNc1cccc(Cl)c1`, with over 50 µM. The same measure, in the same setting: then `CC(=O)ON=C(Cl)C1=C[NH+]([O-])c2cc(Cl)ccc2[NH+]1[O-]` (stereo not drawn), with over 50 µM; and `Cc1ccc2ncnc(Nc3cccc(Cl)c3)c2c1`, with 0.06 µM; and `CC(=O)C1=C(c2ccccc2)[NH+]([O-])c2ccccc2[NH+]1[O-]` (stereo not drawn), with over 100 µM.

Another test addresses EGFR (human) (UniProt P00533). As to conditions: a431.
Molecule `Clc1cccc(Nc2ncnc3ccccc23)c1` showed an IC50 of 20 µM. The same measure, in the same setting: the result for `Cc1ccc2ncnc(Nc3cccc(Cl)c3)c2c1` reads 10 µM and 20 µM.

One may read the IC50 as the point on the concentration scale where inhibition reaches its midpoint. A higher IC50 goes with lower potency.

Source of the values: the Kinase Knowledgebase extract (Sharma et al. 2016).
